{"source": "patent US8663645B2", "about": "“Use of native peptides and their optimized derivatives for vaccination” (Vaxon Biotech, priority 2005, dated 2014)", "key": {"EL4/HHD tumor cells": {"system": "EL4/HHD tumor cells", "assay": "In vivo tumor protection assay", "parameters": "species or system HHD mice", "conditions": "for Survival post-challenge / Survival post-challenge (days): individual mice", "description": "HHD mice were vaccinated with 100 μg of peptide emulsified in IFA in the presence of 150 μg of the 1 Ab restricted HBVcore128 epitope once and then again two weeks later. One week after the second vaccination they were challenged subcutaneously with 2×10^4 EL4/HHD cells. Survival was recorded every two days.\nHHD mice were vaccinated with the optimized cryptic TERT572Y and TERT988Y peptides and fifteen days later boosted with either the same optimized or the corresponding native cryptic peptide. Ten days after the boost, mice were challenged with EL4/HHD tumor cells and monitored for tumor growth and survival. Mice primed and boosted with the gp100154 peptide were used as negative controls (Table 8). 100% of control mice died by day 43 post-challenge."}, "[1]": {"system": "RMAS/HHD cells pulsed with TERT988", "assay": "Avidity of CTL lines for native TERT988 (51Cr release)", "format": "cell-based, HHD mice", "conditions": "TERT988Y primed spleen cells", "description": "(§1) HHD mice were injected subcutaneously with 100 μg of nonamer peptides emulsified in incomplete Freund's adjuvant (IFA) in the presence of 150 μg of the I-Ab restricted HBVcore128 T-helper epitope. Spleen cells (5×10^7 cells in 10 ml) from immunized HHD mice were stimulated in vitro with peptide (10 μM) in RPMI1640+10% FCS for five days. The CTL lines were established by weekly re-stimulation in vitro with irradiated spleen cells in the presence of peptide and 50 U/ml IL-2 (Proleukin, Chiron Corp., Emeryville, Calif.).\n(§2) Murine RMAS/HHD cells were used as targets for cytotoxicity as described (Tourdot, Scardino et al. 2000). Briefly, 2.5×10^3 51Cr-labeled targets were pulsed with increasing doses (0.00001-10 μM) of peptides at 37° C. for 60 min. Effector cells in 100 μl were then added and incubated at 37° C. for 4 hours. After incubation, 100 μl of supernatant were collected and radioactivity was measured in a gamma counter. The specific lysis was determined as: Lysis=(Experimental Release−Spontaneous Release)/(Maximal Release−Spontaneous Release). CTL avidity is defined as the peptide concentration that gives half the maximal lysis. […] In Vivo Tumor Protection Assay\n(§3) HHD mice were immunized with the optimized cryptic TERT988Y peptide. Eleven days later, spleen cells from vaccinated mice were pooled and in vitro serially stimulated with 10 μM of either TERT988Y or the native cryptic TERT988 peptides in the presence of 50 IU/ml of IL2. Stimulations were repeated every week. After the first, third and sixth in vitro stimulation, CTL lines were tested for their avidity for the native TERT988 peptide in a classical ^51Cr release cytotoxicity assay (Table 5)."}, "[2]": {"assay": "Storage stability of vaccine peptides", "format": "physicochemical", "conditions": "more than two years of storage at −80° C.", "description": "The vaccine consisted of optimized TERT572Y (YLFFYRKSV) (SEQ ID NO:2) and native TERT572 (RLFFYRKSV) (SEQ ID NO:1) peptides emulsified in Montanide ISA51 (Seppic Inc, France). The vaccine peptides were synthesized at the Faculty of Pharmacy, University of Patras (Greece) by means of solid-phase Fmoc/Bu chemistry. Quality assurance studies included confirmation of identity, sterility and purity (>95% for both peptides). […] Each peptide was prepared as a lyophilized powder for reconstitution and dilution in sterile water."}, "[3]": {"system": "RMAS/HHD cells pulsed with TERT572", "assay": "Avidity for TERT572 of CTL after in vivo prime and boost", "conditions": "individual HHD mice, 1st vaccination TERT572Y, 2nd vaccination the labelled peptide", "description": "as §1, §2\nHHD mice were vaccinated with the optimized cryptic TERT572Y peptide described above. Fifteen days later, they were boosted with either the same optimized or the native cryptic TERT572 peptide. […]"}, "[4]": {"system": "patients treated with TERT540", "conditions": "cited from earlier work"}, "[5]": {"system": "RMAS/HHD cells pulsed with MAGE-A248D9", "assay": "Avidity of CTL lines for native MAGE-A248D9 (51Cr release)", "format": "cell-based, HHD mice", "conditions": "MAGE-A248V9 primed spleen cells", "description": "as §1, §2\nas §3, with “optimized MAGE-A248V9 peptide, corresponding to the” for “optimized”, “MAGE-A248D9 (both described in WO03083124).” for “TERT988Y peptide.”, “100” for “10”, “MAGE-A248V9” for “TERT988Y”, “MAGE-A248D9” for “TERT988”, “6).” for “5).”"}, "[6]": {"assay": "Phase I clinical study: toxicity (NCI Common Toxicity Criteria)", "format": "in vivo, human", "description": "Patients received a total of six subcutaneous vaccinations administered every 3 weeks. Peptides in 0.5 ml aqueous solution were emulsified with 0.5 ml Montanide ISA51 immediately before being injected. The optimized TERT572Y peptide was used for the first 2 vaccinations and the native TERT572 peptide for the remaining 4 vaccinations. Five dose levels of the peptides were studied; dose levels included 2, 3, 4, 5 and 6 mg of both peptides. Three patients were entered at each dose level. An additional 3 patients were planned to be enrolled at the dose level where a dose-limiting event was observed. Each patient received the same peptide dose for all six vaccinations. No other treatment with possible antitumor activity, i.e., chemotherapy, radiotherapy, hormonal therapy or administration of corticosteroids, was allowed during the course of vaccination.\nBefore entering the study, all patients were assessed by complete medical history, physical examination, and complete blood cell count with differential, serum chemistry and baseline measurements of relevant tumor markers. Moreover, measurable disease was determined by standard imaging procedures (chest x-ray, ultrasound, computed tomography scans of thorax and abdomen, magnetic resonance imaging (MRI) if indicated, and whole body bone scans). Toxicity during the vaccination protocol was evaluated by repeating the complete blood cell count weekly and by performing medical history, physical examination and serum chemistry every three weeks before each subsequent injection during the vaccination period and every month thereafter during the follow up. Toxicity was assessed and scored using the National Cancer Institute (NCI) Common Toxicity Criteria (Ajani, Welch et al. 1990). Dose-limiting toxicity (DLT) was assessed during the entire vaccination protocol and was defined as the occurrence of any of the following: grade 4 hematologic toxicity; grade 3-4 neutropenia with fever>38.2° C.; grade 3-4 non-hematologic toxicity; and any treatment delay because of toxicity. Dose escalation was discontinued and the DLT dose level was reached if at least 50% of the patients treated at that level develop a DLT. The MTD dose level was defined as the first level below the DLT dose level."}, "[7]": {"conditions": "prime TERT988Y, boost the labelled peptide"}, "[8]": {"conditions": "1 in vitro stimulation with the labelled peptide (10 μM)"}, "[9]": {"conditions": "3 in vitro stimulations with the labelled peptide"}, "[10]": {"conditions": "6 in vitro stimulations with the labelled peptide"}, "[11]": {"conditions": "prime TERT572Y, boost the labelled peptide"}, "[12]": {"conditions": "1 in vitro stimulation with the labelled peptide"}}, "note": "Where “and” joins values, the source holds several entries; their conditions need not be identical. Identical values can stand only once. No end group written: not given here.", "data": [{"substance": "DLQVNSLQTV (TERT-988) [TERT988]", "values": [{"measurement": "Survival post-challenge", "setting": "EL4/HHD tumor cells; [7]", "value": "39 days and 40 days and 41 days"}, {"measurement": "Survival post-challenge (days)", "setting": "EL4/HHD tumor cells; [7]", "value": "200+ days"}, {"measurement": "CTL line avidity", "setting": "[1]; [8]", "value": 170, "unit": "nM"}, {"measurement": "CTL line avidity", "setting": "[1]; [9]", "value": 70, "unit": "nM"}, {"measurement": "CTL line avidity", "setting": "[1]; [10]", "value": 3, "unit": "nM"}]}, {"substance": "KTWGQYWQV [Gp100154, reference compound]", "values": [{"measurement": "Survival post-challenge", "setting": "EL4/HHD tumor cells; prime Gp100154, boost the labelled peptide (negative control)", "value": "39 days (2×) and 43 days and 41 days (2×) and 40 days"}, {"measurement": "control mice died by day 43 post-challenge", "setting": "EL4/HHD tumor cells; primed and boosted with gp100154", "value": 100, "unit": "%"}]}, {"substance": "RLFFYRKSV (TERT-572) [TERT572, native cryptic peptide derived from TERT]", "values": [{"measurement": "purity or concentration after storage", "setting": "[2]", "value": "No decrease in purity or concentration"}, {"measurement": "CTL avidity", "setting": "[3]", "value": "110 nM and 190 nM and 70 nM"}, {"measurement": "Survival post-challenge", "setting": "EL4/HHD tumor cells; [11]", "value": "32 days and 35 days and 40 days"}, {"measurement": "Survival post-challenge (days)", "setting": "EL4/HHD tumor cells; [11]", "value": "200+ days"}]}, {"substance": "TERT540: dominant peptide TERT540 (hTERT:540-548), literature vaccine (ILAKFLHWL; UniProt O14746 540-548, looked up, fragment)", "values": [{"measurement": "objective clinical response", "setting": "[4]; 11 patients with renal cancer (Parkhurst, Riley et al. 2004)", "value": "none of 11 patients"}, {"measurement": "patients who responded to the vaccine", "setting": "[4]; TERT540 emulsified in Monatanide (Parkhurst, Riley et al. 2004)", "value": 50, "unit": "%"}]}, {"substance": "YLEYRQVPD (MAGE-A-248D9) [MAGE-A248D9]", "values": [{"measurement": "CTL avidity", "setting": "[5]; [12]", "value": 200, "unit": "nM"}, {"measurement": "CTL avidity", "setting": "[5]; [9]", "value": 40, "unit": "nM"}, {"measurement": "CTL avidity", "setting": "[5]; [10]", "value": 0.8, "unit": "nM"}]}, {"substance": "YLEYRQVPV (MAGE-A-248V9) [MAGE-A248V9]", "values": [{"measurement": "CTL avidity", "setting": "[5]; [12]", "value": 400, "unit": "nM"}, {"measurement": "CTL avidity", "setting": "[5]; [9]", "value": 450, "unit": "nM"}, {"measurement": "CTL avidity", "setting": "[5]; [10]", "value": 320, "unit": "nM"}]}, {"substance": "YLFFYRKSV [TERT572Y, YLFFYRKSV]", "values": [{"measurement": "hematologic, renal, gastrointestinal or hepatic toxicity", "setting": "[6]; TERT-expressing normal cells and tissues", "value": "no significant hematologic, renal, gastrointestinal or hepatic toxicity was observed"}, {"measurement": "MTD dose level", "setting": "[6]; dose levels 2-6 mg", "value": "has not been reached"}, {"measurement": "Dose-limiting toxicity (DLT)", "setting": "[6]; dose levels 2-6 mg, entire study", "value": "No DLT was observed"}, {"measurement": "signs of autoimmunity", "setting": "[6]; even 24 months after the end of vaccination", "value": "none of the patients showed signs of autoimmunity"}, {"measurement": "Toxicity Grade I", "setting": "[6]; individual patients", "value": "no (6×) and Anemia, local skin, fatigue, and anorexia and Thrombo/penia, local skin and Local skin (5×) and thrombocytopenia and Anemia, local skin (3×) and Anemia and Local skin, anemia"}, {"measurement": "Toxicity Grade II", "setting": "[6]; individual patients", "value": "fatigue, nausea and no (16×) and anorexia, fatigue, and nausea and anorexia, fatigue"}, {"measurement": "Toxicity Grade III/IV", "setting": "[6]; individual patients", "value": "no"}, {"measurement": "delayed toxicity", "setting": "[6]; monthly follow up after completing or discontinuing vaccination", "value": "no signs or findings of delayed toxicity were observed"}, {"measurement": "grade 11 anorexia", "setting": "[6]; of 19 patients", "value": 2, "unit": "patients"}, {"measurement": "grade 11 fatigue", "setting": "[6]; of 19 patients", "value": 3, "unit": "patients"}, {"measurement": "grade 11 nausea", "setting": "[6]; of 19 patients", "value": 2, "unit": "patients"}, {"measurement": "grade I anemia", "setting": "[6]; of 19 patients", "value": 6, "unit": "patients"}, {"measurement": "grade I anorexia", "setting": "[6]; of 19 patients", "value": 1, "unit": "patient"}, {"measurement": "grade I fatigue", "setting": "[6]; of 19 patients", "value": 1, "unit": "patient"}, {"measurement": "grade I local skin reaction", "setting": "[6]; of 19 patients", "value": 11, "unit": "patients"}, {"measurement": "grade I thrombocytopenia", "setting": "[6]; of 19 patients", "value": 2, "unit": "patients"}, {"measurement": "patients who developed grade 11 toxicity", "setting": "[6]; of 19 patients", "value": "Three"}, {"measurement": "patients who developed grade I toxicity", "setting": "[6]; of 19 patients", "value": "Thirteen"}]}, {"substance": "YLQVNSLQTV (TERT-988Y1) [TERT988Y]", "values": [{"measurement": "Survival post-challenge", "setting": "EL4/HHD tumor cells; [7]", "value": "40 days (3×) and 43 days (2×)"}, {"measurement": "Survival post-challenge (days)", "setting": "EL4/HHD tumor cells; [7]", "value": "200+ days"}, {"measurement": "CTL line avidity", "setting": "[1]; [8]", "value": 300, "unit": "nM"}, {"measurement": "CTL line avidity", "setting": "[1]; [9]", "value": 500, "unit": "nM"}, {"measurement": "CTL line avidity", "setting": "[1]; [10]", "value": 600, "unit": "nM"}]}]}
